Here are results for three compounds from ChEMBL document CHEMBL1128799, “Design and synthesis of a conformationally constrained analog of the bis(heteroaryl)piperazine (BHAP) HIV-1 reverse transcriptase inhibitor atevirdine” (Bioorg Med Chem Lett, 1995).

The term inhibition denotes how much of the control response was suppressed. Low values mean a weak effect, high ones a strong effect.

Counter-ions that a name gives are not always drawn.

Assay [1] relates to Human immunodeficiency virus 1. The assay is described as follows: Effective dose was evaluated for the inhibition of viral replication (PBMC). Format: functional. As to conditions: read-out: ED50 (the source's name).
Assay [2] addresses Human immunodeficiency virus type 1 reverse transcriptase (Human immunodeficiency virus 1) (UniProt Q72547). Nature of the assay: Compound was tested in vitro for percent inhibition of HIV- I reverse transcriptase (RT) at dose 100 uM.

For `CCNc1cccnc1N1CCN(C(=O)c2cc3cc(OC)ccc3[nH]2)CC1` [ATEVIRDINE SULPHATE], the EC50 in assay [1] is 1000 pM.

With `CC(C)Nc1cccnc1N1CCN(C(=O)c2cc3cc(NS(C)(=O)=O)ccc3[nH]2)CC1` [DELAVIRDINE MESYLATE], the EC50 in assay [1] is 100 pM.

In turn, `CCN1CC2(CCN(C(=O)c3cc4cc(NS(C)(=O)=O)ccc4[nH]3)CC2)c2ncccc21` showed an inhibition in assay [2] of 38%.
